Tested on: Jurkat cells
Experiment: (r) Cell cytotoxicity assay
Format: cell-based, human
Conditions: 24 hours
Procedure: 1×10^5 Jurkat cells (immortalised human T lymphocytes) are added to the appropriate number of wells of a 96 well plate in 100 μL of media (RPMI supplemented with 10% foetal bovine serum). 1 μL of DMSO control (final concentration 1.0% v/v) or test compound (final concentration 20, 5 or 1 μg/mL) is added to the wells and incubated at 37° C., 5% CO2. After 24 hours, the plate is centrifuged at 1200 rpm for 3 minutes and the supernatant discarded. Cells are then resuspended in 150 μL (final concentration 7.5 μg/mL) of propidium iodide (PI) in PBS and incubated at 37° C., 5% CO2 for 15 minutes. After 15 minutes, cells are analysed by flow cytometry (BD accuri) using the FL3 window. The % viability is calculated as the % of cells that are PI negative in the test wells normalised to the DMSO control.

SMILES | % Viability at 1 μg/mL [%] | % Viability at 5 μg/mL [%] | % Viability at 20 μg/mL [%]
COc1cc(Nc2cc(Oc3ccc(NC(=O)Nc4cc(C(C)(C)C)cc(NS(C)(=O)=O)c4OC)c4ccccc34)ccn2)ccc1C(=O)NCCO [17(bn), 4-((4-((4-(3-(5-(tert-Butyl)-2-methoxy-3-(methylsulfonamido)phenyl)ureido)naphthalen-1-yl)oxy)pyridin-2-yl)amino)-N-(2-hydroxyethyl)-2-methoxybenzamide] | 102.8 | 65.6 | 19.5
COc1c(NC(=O)Nc2ccc(Oc3ccnc(Nc4ccc(C(=O)NCCOCCOCCO)c(N(C)C)c4)c3)c3ccccc23)cc(C(C)(C)C)cc1NS(C)(=O)=O [17(bt), 4-((4-((4-(3-(5-(tert-Butyl)-2-methoxy-3-(methylsulfonamido)phenyl)ureido)naphthalen-1-yl)oxy)pyridin-2-yl)amino)-2-(dimethylamino)-N-(2-(2-(2-hydroxyethoxy)ethoxy)ethyl) benzamide] | 89.8 | 39.9 | 22.5
COc1cc(Nc2cc(Oc3ccc(NC(=O)Nc4cc(C(C)(C)C)cc(NS(C)(=O)=O)c4OC)c4ccccc34)ccn2)cc(OC)c1C(=O)NCCCN1CCOCC1 [Example 23, 4-((4-((4-(3-(5-(tert-Butyl)-2-methoxy-3-(methylsulfonamido)phenyl)ureido)naphthalen-1-yl)oxy)pyridin-2-yl)amino)-2,6-dimethoxy-N-(3-morpholinopropyl)benzamide] | 92.4 | 88.9 | 89.8
COc1cc(Nc2cc(Oc3ccc(NC(=O)Nc4cc(C(C)(C)C)cc(NS(C)(=O)=O)c4OC)c4ccccc34)ccn2)ccc1CP(C)(=O)O [Example 70, (4-((4-((4-(3-(5-(tert-Butyl)-2-methoxy-3-(methylsulfonamido)phenyl)ureido)naphthalen-1-yl)oxy)pyridin-2-yl)amino)-2-methoxybenzyl)(methyl)phosphinic acid] | 95.3 | 91.9 | 63.8
COc1cc(Nc2cc(Oc3ccc(NC(=O)Nc4cc(C(C)(C)C)cc(C(N)=O)c4OC)c4ccccc34)ccn2)ccc1C(=O)O [Example 3, 4-((4-((4-(3-(5-(tert-Butyl)-3-carbamoyl-2-methoxyphenyl)ureido)naphthalen-1-yl)oxy)pyridin-2-yl)amino)-2-methoxybenzoic acid] | 93.4 | 95.9 | 91.9
COc1c(NC(=O)Nc2ccc(Oc3ccnc(Nc4ccc(C(=O)O)c(N(C)C)c4)n3)c3ccccc23)cc(C(C)(C)C)cc1NS(C)(=O)=O [17(bc), 4-((4-((4-(3-(5-(tert-Butyl)-2-methoxy-3-(methylsulfonamido)phenyl)ureido)naphthalen-1-yl)oxy)pyrimidin-2-yl)amino)-2-(dimethylamino)benzoic acid] | 93.9 | 89.2 | 10.8
COc1cc(Nc2cc(Oc3ccc(NC(=O)Nc4cc(C(C)(C)C)cc(NS(C)(=O)=O)c4OC)c4ccccc34)ccn2)cc(OC)c1C(=O)NC1CCN(C)CC1 [17(bz), 4-((4-((4-(3-(5-(tert-Butyl)-2-methoxy-3-(methylsulfonamido)phenyl)ureido)naphthalen-1-yl)oxy)pyridin-2-yl)amino)-2,6-dimethoxy-N-(1-methylpiperidin-4-yl)benzamide] | 93.6 | 92.7 | 64.1
COc1cc(Nc2cc(Oc3ccc(NC(=O)Nc4cc(C(C)(C)C)cc(NS(C)(=O)=O)c4OC)c4ccccc34)ccn2)ccc1C(=O)NCCNC(=O)CCC(=O)O [17(cd), 4-((2-(4-((4-((4-(3-(5-(tert-Butyl)-2-methoxy-3-(methylsulfonamido)phenyl)ureido)-naphthalen-1-yl)oxy)pyridin-2-yl)amino)-2-methoxybenzamido)ethyl)amino)-4-oxobutanoic acid] | 96.4 | 96.5 | 91.4
COc1cc(Nc2cc(Oc3ccc(NC(=O)Nc4cc(C(C)(C)C)cc(NS(C)(=O)=O)c4OC)c4ccccc34)ccn2)ccc1C(=O)N[C@@H]1CCN(C)C1 [17(cq), (R)-4-((4-((4-(3-(5-(tert-Butyl)-2-methoxy-3-(methylsulfonamido)phenyl)ureido)-naphthalen-1-yl)oxy)pyridin-2-yl)amino)-2-methoxy-N-(1-methylpyrrolidin-3-yl)benzamide] | 74.3 | 9.0 | 0.7
COc1cc(Nc2cc(Oc3ccc(NC(=O)Nc4cc(C(C)(C)C)cc(NS(C)(=O)=O)c4OC)c4ccccc34)ccn2)ccc1C(=O)NCCC1CCNCC1 [Example 27, 4-((4-((4-(3-(5-(tert-Butyl)-2-methoxy-3-(methylsulfonamido)phenyl)ureido)naphthalen-1-yl)oxy)pyridin-2-yl)amino)-2-methoxy-N-(2-(piperidin-4-yl)ethyl)benzamide] | 101.2 | 94.9 | 1.7
COc1cc(Nc2cc(Oc3ccc(NC(=O)Nc4cc(C(C)(C)C)cc(NS(C)(=O)=O)c4OC)c4ccccc34)ccn2)cc(OC)c1C(=O)NCCC1CCN(C)CC1 [17(at), 4-((4-((4-(3-(5-(tert-Butyl)-2-methoxy-3-(methylsulfonamido)phenyl)ureido)naphthalen-1-yl)oxy)pyridin-2-yl)amino)-2,6-dimethoxy-N-(2-(1-methylpiperidin-4-yl)ethyl)benzamide] | 95.2 | 93.2 | 86.6
COc1cc(Nc2cc(Oc3ccc(NC(=O)Nc4cc(C(C)(C)C)cc(NS(C)(=O)=O)c4OC)c4ccccc34)ccn2)ccc1C(=O)N[C@@H](CO)C(=O)O [17(bj), (S)-2-(4-((4-((4-(3-(5-(tert-Butyl)-2-methoxy-3-(methylsulfonamido)phenyl)ureido)-naphthalen-1-yl)oxy)pyridin-2-yl)amino)-2-methoxybenzamido)-3-hydroxypropanoic acid] | 96.2 | 96.6 | 94.8
COc1c(NC(=O)Nc2ccc(Oc3ccnc(Nc4ccc(P(C)(=O)O)c(N(C)C)c4)c3)c3ccccc23)cc(C(C)(C)C)cc1NS(C)(=O)=O [Example 68, [4-[[4-[[4-[[5-tert-Butyl-3-(methanesulfonamido)-2-methoxy-phenyl]carbamoylamino]-1-naphthyl]oxy]-2-pyridyl]amino]-2-(dimethylamino)phenyl]-methyl-phosphinic acid] | 95.6 | 92.7 | 90.2
COc1c(NC(=O)Nc2ccc(Oc3ccnc(Nc4ccc(C(=O)NCCN5CCN(C)CC5)c(N(C)C)c4)c3)c3ccccc23)cc(C(C)(C)C)cc1NS(C)(=O)=O [17(bq), 4-((4-((4-(3-(5-(tert-Butyl)-2-methoxy-3-(methylsulfonamido)phenyl)ureido)naphthalen-1-yl)oxy)pyridin-2-yl)amino)-2-(dimethylamino)-N-(2-(4-methylpiperazin-1-yl)ethyl)benzamide] | 87.2 | 55.3 | 2.0
COc1cc(Nc2cc(Oc3ccc(NC(=O)Nc4cc(C(C)(C)C)cc(NS(C)(=O)=O)c4OC)c4ccccc34)ccn2)cc(OC)c1C(=O)N1CCN(CCN(C)C)CC1 [17(cg), N-(5-(tert-Butyl)-3-(3-(4-((2-((4-(4-(2-(dimethylamino)ethyl)piperazine-1-carbonyl)-3,5-dimethoxyphenyl)amino)pyridin-4-yl)oxy)naphthalen-1-yl)ureido)-2-methoxyphenyl)methane sulfonamide] | 96.1 | 95.3 | 92.3
COc1cc(Nc2cc(Oc3ccc(NC(=O)Nc4cc(C(C)(C)C)cc(NS(C)(=O)=O)c4OC)c4ccccc34)ccn2)ccc1C(=O)NCCN1CCN(C)CC1(C)C [17(bi), 4-((4-((4-(3-(5-(tert-Butyl)-2-methoxy-3-(methylsulfonamido)phenyl)ureido)naphthalen-1-yl)oxy)pyridin-2-yl)amino)-2-methoxy-N-(2-(2,2,4-trimethylpiperazin-1-yl)ethyl)benzamide] | 97.4 | 0.8 | 0.6
COc1cc(Nc2cc(Oc3ccc(NC(=O)Nc4cc(C(C)(C)C)cc(NS(C)(=O)=O)c4OC)c4ccccc34)ccn2)ccc1C(=O)NCC[N+]1([O-])CCOCC1 [Example 33, 4-(2-(4-((4-((4-(3-(5-(tert-Butyl)-2-methoxy-3-(methylsulfonamido)phenyl)ureido)naphthalen-1-yl)oxy)pyridin-2-yl)amino)-2-methoxybenzamido)ethyl)morpholine 4-oxide] | 104.1 | 95.5 | 69.3
COc1cc(Nc2cc(Oc3ccc(NC(=O)Nc4cc(C(C)(C)C)cc(NS(C)(=O)=O)c4OC)c4ccccc34)ccn2)ccc1C(=O)NC[C@@H]1O[C@H](CO)[C@@H](O)[C@H](O)[C@H]1O [17(co), 4-((4-((4-(3-(5-(tert-Butyl)-2-methoxy-3-(methylsulfonamido)phenyl)ureido)naphthalen-1-yl)oxy)pyridin-2-yl)amino)-2-methoxy-N-(((2S,3R,4R,5S,6R)-3,4,5-trihydroxy-6-(hydroxymethyl)tetrahydro-2H-pyran-2-yl)methyl)benzamide] | 94.5 | 93.3 | 92.2
